Experiments:
Type in all cases: cell-based
[1] = test system: innate live bacterial populations in poultry facility swabs; test: 3-step metabolic labeling of poultry facility swabs with or without EDA, PIPER
Protocol: Experimental Detail: Swab samples were collected using sponge sticks (3M, Saint Paul, MN) soaked in Letheen broth (samples G, Q) or Neutralizing buffer (sample H). Samples were stored on ice and processed within 24 hours after collection. Eluents from the sponges were aseptically extracted and the rest was frozen at −80° C. until the time of analysis. Prior to 3-step metabolic labeling, an aliquot from each eluent was removed for serial dilution and plating on APC petrifilm (3M, Saint Paul, MN) and incubated as per manufacturer instructions to evaluate the number of total viable bacteria by the “gold standard” method. Each eluent sample was divided into two aliquots for incubation with EDA or without EDA, as a control for non-specific staining with the fluorophore. The 1st step of labeling was carried out by adding 5 μg/mL chloramphenicol and 1 mM EDA, where indicated, followed by 90 min incubation at 37° C. […]
FIG. 24 depicts how 3-step metabolic labeling detects innate live bacterial populations in poultry facility swabs. […] To convert the PIPER counts into the number of live bacteria per swab, the values were corrected for the volume of the viewing window relative to the total sample volume loaded into the cartridge lane, and the fraction of the total eluent volume analyzed.

[2] = test system: Salmonella Typhimurium and Klebsiella pneumoniae; test: Two-step CLICK labeling with or without EDA, PIPER non-capture assay; conditions: 1 mM EDA, last 30 min of incubation; 25 μM CF488 picolyl azide
Protocol: FIG. 7 depicts both components of the two-step CLICK reaction are required for cell labeling. Salmonella Typhimurium (top panel) and Klebsiella pneumoniae (bottom panel) were grown overnight at 37° C. The next day, cells were diluted into fresh media and grown until they reached log-phase. The last 30 min of incubation were carried out in the presence or absence of 1 mM of EDA (D-propargylglycine, AK Scientific, Union City, CA). Cells were harvested by centrifugation (10 min 10,000 g), and supernatant was discarded. Bacteria were then washed, fixed by incubation with 4% paraformaldehyde, pelleted by centrifugation (10 min 10,000 g), and supernatant was discarded. […] An automated bacterial image recognition algorithm determined labeled cell counts (graphs).

[3] = test system: Pseudomonas; test: Two-step labeling with EDA versus NADA-Green, PIPER counts relative to SYBR labeling; conditions: 1 mM EDA 30 minutes plus click reaction solution, compared with 1 mM NADA-Green 60-90 minutes
From the text: Universal labeling of all bacteria presents some challenges. D-amino acid analogs must first penetrate the outer membrane of gram-negative bacteria to be incorporated into peptidoglycan. The smaller size of the “clickable” D-amino acids compared to the FDAAs helps achieve higher labeling efficiency for some gram-negative bacteria. Accordingly, and for example, FIGS. 11A-B depict two-step labeling using the “clickable” D-amino acid, EDA, which improves detection of Pseudomonas. Log phase Pseudomonas growing at 37° C. in BHI (with [Supplemented BHI, red bars] or without [blue bars] supplementation with 50 mM glucose and 10 mM sodium pyruvate) was incubated for 60-90 minutes with 1 mM NADA-Green (Bio-Techne, Minneapolis, MN); or for 30 minutes in the presence or absence of 1 mM clickable D-amino acid, EDA (D-propargylglycine, AK Scientific, Union City, CA). For the unlabeled cells or cells labeled with NADA-Green, the cells were pelleted after incubation and resuspended in 1×PBS. For the cells grown in the presence or absence of EDA, the cells were pelleted after incubation by centrifugation (10 min 10,000 g), and supernatant was discarded. Bacteria were washed with 1 mL of 1× PBS, pelleted by centrifugation again (10 min 10,000 g), and supernatant was discarded. […]

`C#CC[C@@H](N)C(=O)O` [EDA, D-propargylglycine] was tested, and the “increase in PIPER cell counts over (-EDA) control” value ([1]; 1 mM EDA, 90 min at 37° C.) was ~1.5 log, the “signal on omitting EDA from the 1st step of labeling” value ([1]; swab samples H, G and Q) was “dramatic reduction of the signal” and the “signal of click labeling in the presence or absence of EDA” value [2] was “No signal is observed when the click reagents are added in the absence of EDA”. For the same compound, the “detection efficiency, cell counts relative to counts obtained by SYBR labeling” value [3] was “Highest detection efficiency”.

Source: patent US20250354192A1, “METHODS FOR QUANTIFYING LIVE BACTERIA” (priority 2022, published 2025)
